Experimental data published in patent US11498909B2, “Compound acting as antibiotics” (KBP BIOSCIENCES CO., LTD., priority 2018, dated 2022).
≈ marks a conversion by molar mass, not a printed value. Like-named read-outs stand apart in the source and are kept apart here.

Legend:
Pseudomonas aeruginosa = assay: In vitro antibacterial activity, agar dilution MIC (Experiment 1); type: cell-based
Experimental: Tested strains: all the clinically separated strains below were purchased from public facilities.
Escherichia coli ATCC25922, Pseudomonas aeruginosa ATCC27853, Klebsiella pneumoniae ATCC700603, and the like.
Tested Samples: Imipenem, Ceftazidime: Commercial Products, the Following Experiments were Carried Out According to the Content of an Effective Ingredient in Each Commercial Product;
The compounds of the present invention, their chemical names, and preparation methods are shown in the preparation example of each compound.
Experiment method: Agar dilution method, refer to National Committee for Clinical Laboratory Standards. 2006. Methods for Dilution Antimicrobial Susceptibility Tests for Bacteria That Grow Aerobically; Approved Standard—Seventh Edition M7-A7, Vol 26, No. 2, 2006, to determine the MIC of the compound. MIC represents the minimum inhibitory concentration.

[1] = Pharmacokinetics (PK) determination in SD rats (Experiment 4); type: in vivo; conditions: plasma; for AUCINF_obs / AUClast / Cl_obs / Vz_obs / t1/2z / λ_z: IV 2 mg/kg; for AUC(0-t) / AUC(0-inf): Sprague-Dawley (SD), rat, iv; for AUC(0-inf): read-out: AUCINF_obs
Experimental: The compound of the present invention, self-prepared and dissolved in a suitable solvent.
Instrument and equipment: API4000 LC-MS/MS
Chromatographic column: Waters XBridge C18(2.1×50 mm, […])
Rat blood collection: Animals were fixed. The animal's tail was heated with a water bathtub 10 minutes before each time point. About 200 μL of the blood was collected through the caudal vein. After the blood collection, the blood was placed in an anticoagulation tube containing heparin sodium. The blood samples were centrifuged at 8000 rpm for 6 minutes at 4° C. to obtain plasma samples. The plasma must be prepared within 30 minutes after the blood collection. The plasma was stored in a refrigerator at −80° C. before the test.
(1) Test samples were removed from the refrigerator (−80° C.), naturally thawed at room temperature, and then vortexed for 5 minutes;
(2) 20 μL sample was precisely pipetted to a 1.5 mL centrifuge tube;
(3) 200 μL of the internal standard solution was added;
(4) The mixture was vortexed for 5 minutes and centrifuged for 5 minutes (12000 revolutions per minute);
(5) 100 μL of the supernate was precisely pipetted, 100 μL of water was added, the mixture was vortexed for 5 minutes, and the sample was sent to LC-MS/MS for analysis.
The results of the concentrations of the test samples (plasma samples) were output with Analyst 1.6.1 of AB Corporation. The meaning value, the standard deviation, the coefficient of variation, and other parameters (not necessary to calculate the parameter that can be directly output from Analyst 1.6.1) were calculated with Microsoft Excel, and the PK parameter is calculated with Pharsight Phoenix 6.1 software.

[2] = agar dilution (Table 3), read-out: MIC50
[3] = agar dilution (Table 3), read-out: MIC90

## C[C@H](O)[C@H](NC(=O)c1ccc(C#CC#Cc2ccc(CO)o2)cc1)C(=O)NO [Compound 10, N-((2S,3S)-3-hydroxy-1-(hydroxyamino)-1-oxobutan-2-yl)-4-((5-(hydroxymethyl)furan-2-yl)buta-1,3-diynyl)benzamide]
Pseudomonas aeruginosa; agar dilution (Table 3)
  MIC50: 0.125 µg/mL (≈ 0.327 µM)
  MIC90: 1 µg/mL (≈ 2.62 µM)
[1]; 2 mg/kg
  AUCINF_obs: 4902 ± 532 ng·h/mL
  AUClast: 4891 ± 533 ng·h/mL
  Cl_obs: 17.2 ± 1.83 mL/min/kg
  Vz_obs: 1.03 ± 0.11 L/kg
  t1/2z: 44.4 ± 9.6 min
  λ_z: 0.97 ± 0.23 h⁻¹

## C[C@@H](O)[C@H](NC(=O)c1ccc(C#CC#Cc2ccc(CN3CCN(C)CC3)o2)cc1)C(=O)NO [Compound 13, N-((2S,3R)-3-hydroxy-1-(hydroxyamino)-1-oxobutan-2-yl)-4-((5-((4-methylpiperazin-1-yl)methyl)furan-2-yl)buta-1,3-diynyl)benzamide]
Pseudomonas aeruginosa; [2]
  MIC50: 2 µg/mL (≈ 4.31 µM)
Pseudomonas aeruginosa; [3]
  MIC90: 8 µg/mL (≈ 17.2 µM)
[1]
  Cl_obs: 69 ± 11.7 mL/min/kg
  Vz_obs: 2.09 ± 0.39 L/kg
  t1/2z: 21 ± 0.6 min
  λ_z: 1.98 ± 0.04 h⁻¹
[1]; 2 mg/kg
  AUC(0-t): 485 ± 87.4 ng·h/mL
  AUC(0-inf): 493 ± 87.9 ng·h/mL

## CNCc1ccc(C#CC#Cc2ccc(C(=O)N[C@H](C(=O)NO)[C@@H](C)O)cc2)o1 [Compound 15, N-((2S,3R)-3-hydroxy-1-(hydroxyamino)-1-oxobutan-2-yl)-4-((5-((methylamino)methyl)furan-2-yl)buta-1,3-diynyl)benzamide]
Pseudomonas aeruginosa; [2]
  MIC50: 0.5 µg/mL (≈ 1.26 µM)
Pseudomonas aeruginosa; [3]
  MIC90: 2 µg/mL (≈ 5.06 µM)
[1]
  Cl_obs: 25.2 ± 4.5 mL/min/kg
  Vz_obs: 1.57 ± 0.28 L/kg
  t1/2z: 44.4 ± 13.2 min
  λ_z: 0.99 ± 0.29 h⁻¹
[1]; 2 mg/kg
  AUC(0-t): 1330 ± 108 ng·h/mL
  AUC(0-inf): 1350 ± 222 ng·h/mL

## Cc1cc(C#CC#Cc2ccc(C(=O)N[C@H](C(=O)NO)[C@@H](C)O)cc2)oc1CO [Compound 16, N-((2S,3R)-3-hydroxy-1-(hydroxyamino)-1-oxobutan-2-yl)-4-((5-(hydroxymethyl)-4-methylfuran-2-yl)buta-1,3-diynyl)benzamide]
Pseudomonas aeruginosa; [2]
  MIC50: 0.5 µg/mL (≈ 1.26 µM)
Pseudomonas aeruginosa; [3]
  MIC90: 2 µg/mL (≈ 5.05 µM)
[1]
  Cl_obs: 12 ± 0.67 mL/min/kg
  Vz_obs: 0.47 ± 0.16 L/kg
  t1/2z: 27 ± 8.4 min
  λ_z: 1.67 ± 0.58 h⁻¹
[1]; 2 mg/kg
  AUC(0-t): 2780 ± 130 ng·h/mL
  AUC(0-inf): 2790 ± 136 ng·h/mL

## C[C@@H](O)[C@H](NC(=O)c1ccc(C#CC#Cc2ccco2)cc1)C(=O)NO [Compound 20]
Pseudomonas aeruginosa; agar dilution (Table 3)
  MIC50: 0.25 µg/mL (≈ 0.71 µM)
  MIC90: 1 µg/mL (≈ 2.84 µM)
[1]
  AUCINF_obs: 791 ± 117 ng·h/mL
  AUClast: 778 ± 116 ng·h/mL
  Cl_obs: 107 ± 16 mL/min/kg
  Vz_obs: 3.77 ± 0.53 L/kg
  t1/2z: 24.6 ± 0.6 min
  λ_z: 1.70 ± 0.03 h⁻¹

## C[C@@H](O)[C@H](NC(=O)c1ccc(C#CC#Cc2ccc(COCCOCCO)o2)cc1)C(=O)NO [Compound 21, N-((2S,3R)-3-hydroxy-1-(hydroxyamino)-1-oxobutan-2-yl)-4-((5-((2-(2-hydroxyethoxy)ethoxy)methyl)furan-2-yl)buta-1,3-diynyl)benzamide]
Pseudomonas aeruginosa; [2]
  MIC50: 1 µg/mL (≈ 2.13 µM)
Pseudomonas aeruginosa; [3]
  MIC90: 4 µg/mL (≈ 8.5 µM)
[1]
  Cl_obs: 24.2 ± 4.83 mL/min/kg
  Vz_obs: 0.33 ± 0.07 L/kg
  t1/2z: 9.6 ± 0.6 min
  λ_z: 4.38 ± 0.25 h⁻¹
[1]; 2 mg/kg
  AUC(0-t): 1400 ± 256 ng·h/mL
  AUC(0-inf): 1420 ± 255 ng·h/mL

## Cn1nccc1-c1ccc(C#Cc2ccc(C(=O)N[C@H](C(=O)NO)C(C)(C)N)cc2)cc1 [Compound 35, (S)—N-(3-amino-1-(hydroxyamino)-3-methyl-1-oxobutan-2-yl)-4-((4-(1-methyl-1H-pyrazol-5-yl)phenyl)ethynyl)benzamide]
Pseudomonas aeruginosa
  MIC50: 2 µg/mL (≈ 4.64 µM)
  MIC90: 16 µg/mL (≈ 37.1 µM)

## C[C@@H](O)[C@H](NC(=O)c1ccc(C#Cc2ccc(-c3ccnn3C)cc2)cc1)C(=O)NO [Compound 36, N-((2S,3R)-3-hydroxy-1-(hydroxyamino)-1-oxobutan-2-yl)-4-((4-(1-methyl-1H-pyrazol-5-yl)phenyl)ethynyl)benzamide]
Pseudomonas aeruginosa; [2]
  MIC50: 2 µg/mL (≈ 4.78 µM)
Pseudomonas aeruginosa; [3]
  MIC90: > 16 µg/mL

## Cn1nc(CO)cc1-c1ccc(C#Cc2ccc(C(=O)N[C@H](C(=O)NO)C(C)(C)N)cc2)cc1 [Compound 37, (S)—N-(3-amino-1-(hydroxyamino)-3-methyl-1-oxobutan-2-yl)-4-((4-(3-(hydroxymethyl)-1-methyl-1H-pyrazol-5-yl)phenyl)ethynyl)benzamide]
Pseudomonas aeruginosa; [2]
  MIC50: 1 µg/mL (≈ 2.17 µM)
[1]
  Cl_obs: 78.5 ± 5.5 mL/min/kg
  Vz_obs: 17.6 ± 4.22 L/kg
  t1/2z: 158 ± 45.6 min
  λ_z: 0.28 ± 0.08 h⁻¹
[1]; 2 mg/kg
  AUC(0-t): 402 ± 21.6 ng·h/mL
  AUC(0-inf): 426 ± 28.5 ng·h/mL

## C[C@@H](O)[C@H](NC(=O)c1ccc(C#Cc2ccc(-c3ccnn3C)nc2)cc1)C(=O)NO [Compound 40, N-((2S,3R)-3-hydroxy-1-(hydroxyamino)-1-oxobutan-2-yl)-4-((6-(1-methyl-1H-pyrazol-5-yl)pyridin-3-yl)ethynyl)benzamide]
Pseudomonas aeruginosa; [2]
  MIC50: 2 µg/mL (≈ 4.77 µM)
Pseudomonas aeruginosa; [3]
  MIC90: 1 µg/mL (≈ 2.38 µM)

## C[C@@H](O)[C@H](NC(=O)c1ccc(C#CC#Cc2ccc(CNCCOCCO)s2)cc1)C(=O)NO [Compound 42, N-((2S,3R)-3-hydroxy-1-(hydroxyamino)-1-oxobutan-2-yl)-4-((5-((2-(2-hydroxyethoxy)ethylamino)methyl)thienyl-2-yl)buta-1,3-diynyl)benzamide]
Pseudomonas aeruginosa; [2]
  MIC50: 0.5 µg/mL (≈ 1.03 µM)
Pseudomonas aeruginosa; [3]
  MIC90: 4 µg/mL (≈ 8.24 µM)
[1]
  Cl_obs: 84.3 ± 9.17 mL/min/kg
  Vz_obs: 2.16 ± 0.30 L/kg
  t1/2z: 18 ± 0.6 min
  λ_z: 2.35 ± 0.07 h⁻¹
[1]; 2 mg/kg
  AUC(0-t): 396 ± 41 ng·h/mL
  AUC(0-inf): 398 ± 41 ng·h/mL

## C[C@@H](O)[C@H](NC(=O)c1ccc(C#CC#Cc2ccc(CN3CCOCC3)s2)cc1)C(=O)NO [Compound 43, N-((2S,3R)-3-hydroxy-1-(hydroxyamino)-1-oxobutan-2-yl)-4-((5-(morpholinomethyl)thienyl-2-yl)buta-1,3-diynyl)benzamide]
Pseudomonas aeruginosa; [2]
  MIC50: 1 µg/mL (≈ 2.14 µM)
Pseudomonas aeruginosa; [3]
  MIC90: 4 µg/mL (≈ 8.56 µM)
[1]
  Cl_obs: 36.5 ± 3.67 mL/min/kg
  Vz_obs: 0.88 ± 0.07 L/kg
  t1/2z: 16.8 ± 0.6 min
  λ_z: 2.48 ± 0.06 h⁻¹
[1]; 2 mg/kg
  AUC(0-t): 919 ± 100 ng·h/mL
  AUC(0-inf): 921 ± 100 ng·h/mL

## CC(CCn1ccc(-c2ccc(C#Cc3ccc(CN4CCOCC4)o3)cc2)cc1=O)(C(=O)NO)S(C)(=O)=O (stereo not shown) [Compound 45, N-hydroxy-2-methyl-2-(methylsulfonyl)-4-(4-(4-((5-(morpholinomethyl)furan-2-yl)ethynyl)phenyl)-2-oxopyridin-1(2H)-yl)butanamide]
Pseudomonas aeruginosa; [2]
  MIC50: 4 µg/mL (≈ 7.22 µM)

## C[C@@](CCn1ccc(-c2ccc(C#Cc3ccc(CO)o3)cc2)cc1=O)(C(=O)NO)S(C)(=O)=O [Compound 46]
Pseudomonas aeruginosa; [2]
  MIC50: 1 µg/mL (≈ 2.06 µM)
Pseudomonas aeruginosa; [3]
  MIC90: 8 µg/mL (≈ 16.5 µM)

## CC(CCn1ccc(-c2ccc(C#CC#Cc3ccc(CO)o3)cc2)cc1=O)(C(=O)NO)S(C)(=O)=O (stereo not shown) [Compound 47]
Pseudomonas aeruginosa; [2]
  MIC50: 4 µg/mL (≈ 7.87 µM)
Pseudomonas aeruginosa; [3]
  MIC90: > 16 µg/mL

## COCc1ccc(C#Cc2ccc(-c3ccn(CCC(C)(C(=O)NO)S(C)(=O)=O)c(=O)c3)cc2)o1 (stereo not shown) [Compound 48]
Pseudomonas aeruginosa; [2]
  MIC50: 2 µg/mL (≈ 4.01 µM)

## N-((2S,3R)-3-hydroxy-1-(hydroxyamino)-1-oxobutan-2-yl)-4-((5-((2-(2-hydroxyethoxy)ethylamino)methyl)furan-2-yl)buta-1,3-diynyl)benzamide [Compound 19]
Pseudomonas aeruginosa; agar dilution (Table 3)
  MIC50: 2 µg/mL
  MIC90: 8 µg/mL
